Reference: US20240115654A1, “INTRAVENOUS ADMINISTRATION OF ENGINEERED ANTIMICROBIAL AMPHIPHILIC PEPTIDES” (priority 2021, published 2024)
In brackets after ≈: the same amount, converted by molar mass. Where two headings read alike, the source gives them in different places. Peptide text beside a SMILES is read from it.

Key:
[1] = mice
Description: Male CD-1 mice will be received from an approved vendor and allowed to acclimate for a minimum of two days. Fasting will be not required.
All dosing syringes will be weighed prior to and following dosing. IV doses will be administered as a slow bolus (over ˜30 seconds) via direct venipuncture of a tail vein. All animals will be observed at dosing and each scheduled collection. All abnormalities will be recorded.
Terminal blood samples will be collected via cardiac puncture following inhalation anesthesia.
Sample Processing and Storage: Blood samples will be collected into K2EDTA tubes and stored on wet ice. Whole blood will be processed to plasma by centrifugation (3500 rpm at 5° C.) within 30 minutes of collection. Plasma samples will be split into 2 equal aliquots and each transferred into 96 well plates (matrix tubes) and stored at −80° C. until analysis. Administered doses will be determined gravimetrically.
Prior to extraction, a known concentration of a mass-adjusted internal standard (IS) will be added to assess recovery and allow for quantitation. Purified samples will be further subjected to high-performance liquid chromatography (HPLC) using C18 300 or 130 angstrom columns prior to MS/MS analysis. Multiple charge states will be observed by MS, so MS/MS will be employed to enable multiple reaction monitoring (MRM) analyses to determine the most MRM transitions with the highest signal-to-noise gain. Compound plasma concentrations will be determined by comparing to and compensating with co-purified IS peak intensity and validated calibrated standard curves.
Pharmacokinetic parameters will be calculated using non-compartmental methods as implemented in the Phoenix® WinNonlin® ver. 6.3 comprehensive TK/PK analysis software program (Pharsight Corporation; Mountain View, CA) using an IV infusion model. Pharmacokinetic analysis will be conducted using a 30-minute intravenous infusion time. Therefore, 30 minutes will be added to each sample time point postdose to obtain nominal time for TK analysis. Nominal times and dosage levels will be used for all calculations. Values below the lower limit of quantitation (BLQ) will be assigned a value of zero for the pharmacokinetic calculations. Microsoft® Excel® 2013 will be used for receipt of bioanalytical data, minor formatting, including setting BLQ values to “0”, transfer into WinNonlin® for PK analysis, and calculation of the mean when an approximated value will be excluded. All plasma concentration data from all animals will be included in the analysis. Graphical presentations will be performed using Microsoft® Excel® 2013.

[2] = tested on: Staphylococcus aureus isolates (n = 104); experiment: microbe, parasite or virus in culture
Description: Comparator antibiotics were supplied by Micromyx, and stock solutions were prepared on the first day of testing using solvents recommended by CLSI (1). Stock solutions of all compounds were made at 40× the final testing concentration and stored at −80° C. prior to testing. Information regarding compound source, catalog and lot number, testing concentrations and drug diluent for the comparators and test agent are detailed below in Table 3.
The test organisms evaluated in this study consisted of clinical isolates from the Micromyx Repository and reference isolates from the American Type Culture Collection (ATCC; Manassas, VA). The clinical isolates were obtained from USA hospitals. Upon initial receipt at Micromyx, the organisms were sub-cultured onto an appropriate agar medium. Following incubation, colonies were harvested from these plates and cell suspensions prepared and frozen at −80° C. with a cryoprotectant. Prior to testing, the isolates were streaked from frozen vials onto Trypticase Soy Agar with 5% sheep blood (Becton Dickenson [BD]; Sparks, MD; Lot Nos. 7173618, 7166759, 7208688, 72144895, 7228505 and Remel Lenexa, KS Lot No. 212574). Plates were incubated at 35° C. overnight.
Mueller Hinton II broth (MHB II; BD; Lot Nos. 6258541 and 7143896) was used for MIC testing of aerobic organisms.
MIC values were determined using a broth microdilution procedure described by CLSI (1, 3). Automated liquid handlers (Multidrop 384, Labsystems, Helsinki, Finland; Biomek 2000 and Biomek FX, Beckman Coulter, Fullerton CA) were used to conduct serial dilutions and liquid transfers.
To prepare the drug mother plates, which would provide the serial drug dilutions for the replicate daughter plates, the wells of columns 2-12 of standard 96-well microdilution plates (Costar 3795) were filled with 150 μl of the designated diluent for each row of drug. The test articles and comparator compounds (300 μl at 40× the highest concentration to be tested) were dispensed into the appropriate wells in column 1. The Biomek 2000 was then used to make 2-fold serial dilutions in the mother plates from column 1 through column 11. The wells of Column 12 contained no drug and served as the organism growth control wells for the assay.
The daughter plates were loaded with 185 μL per well of MHB II using the Multidrop 384. The daughter plates were completed on the Biomek FX instrument which transferred 5 μL of drug solution from each well of a mother plate to the corresponding well of each daughter plate in a single step. A standardized inoculum of each test organism was prepared per CLSI methods (1). The inoculum for each organism was dispensed into sterile reservoirs divided by length (Beckman Coulter), and the Biomek 2000 was used to inoculate the plates. Daughter plates were placed on the Biomek 2000 work surface in reverse orientation so that inoculation took place from low to high drug concentration.
Plates were stacked 3-4 high, covered with a lid on the top plate, placed in plastic bags, and incubated at 35° C. for 16 to 20 hrs. Following incubation, the microplates were removed from the incubator and viewed from the bottom using a plate viewer. […] The MIC was read and recorded as the lowest concentration of drug that inhibited visible growth of the organism.
Clinical breakpoints to determine percent resistance within a given organism group were obtained from CLSI (3), with the exception of colistin for K. pneumoniae, Enterobacter spp., and E. coli, which are only available from EUCAST.

[3] = tested on: P. aeruginosa strains (PAO1 and 2 clinical isolates); experiment: Determination of bacterial resistance, passage at 0.5×MIC with daily MIC; assay type: cell-based, Pseudomonas aeruginosa; conditions: three P. aeruginosa strains, exposure at 0.5×MIC, FIG. 20
Text: Each antibiotic was compared for their propensity to select for bacterial resistance phenotypes in vitro.

[4] = tested on: Acinetobacter baumannii ATCC BAA-1797 (MDR); assay type: cell-based; conditions: Acinetobacter baumannii ATCC BAA-1797 (MDR)
How it was run: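 Test medium: Mueller Hinton II broth with 0.002% polysorbate 80. Organisms were exposed at ~5×10^5 CFU/mL to two-fold peptide dilutions, maximum 32 mcg/mL final, incubated at 35° C for 16–20 hrs; lowest concentration without visible growth recorded.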

[5] = IV infusion 1 mg/kg, Group 1, mean of rats
[6] = IV infusion 5 mg/kg, Group 2, mean of rats
[7] = IV infusion 10 mg/kg, Group 4, mean of rats
[8] = Staphylococcus aureus (n = 104), all methicillin-resistant

CC(C)[C@H](NC(=O)[C@H](Cc1c[nH]c2ccccc12)NC(=O)[C@H](CCCNC(=N)N)NC(=O)[C@H](CCCNC(=N)N)NC(=O)[C@@H](NC(=O)[C@@H](NC(=O)[C@H](CCCNC(=N)N)NC(=O)[C@@H](NC(=O)[C@@H](NC(=O)[C@H](CCCNC(=N)N)NC(=O)[C@H](CCCNC(=N)N)NC(=O)[C@H](Cc1c[nH]c2ccccc12)NC(=O)[C@@H](NC(=O)[C@H](CCCNC(=N)N)NC(=O)[C@H](CCCNC(=N)N)NC(=O)[C@@H](NC(=O)[C@H](CCCNC(=N)N)NC(=O)[C@H](CCCNC(=N)N)NC(=O)[C@@H](NC(=O)[C@H](Cc1c[nH]c2ccccc12)NC(=O)[C@H](CCCNC(=N)N)NC(=O)[C@@H](N)CCCNC(=N)N)C(C)C)C(C)C)C(C)C)C(C)C)C(C)C)C(C)C)C(C)C)C(=O)N[C@@H](CCCNC(=N)N)C(=O)N[C@@H](CCCNC(=N)N)C(N)=O [SEQ ID NO: 1] (H-RRWVRRVRRVWRRVVRVVRRWVRR-NH2)
AUCinf_D [5]: 787 kg·ng·h/mL/ng
CL [5]: 21.87 mL/min/kg
Extrapolated [5]: 3.28%
Vss [5]: 3.401 L/kg
Vz [5]: 10.884 L/kg
AUCinf_D [6]: 5158 kg·ng·h/mL/ng
Extrapolated [6]: 0.424%
Vss [6]: 0.229 L/kg
Vz [6]: 1.533 L/kg
AUCinf_D [7]: 8049 kg·ng·h/mL/ng
CL [7]: 2.12 mL/min/kg
Extrapolated [7]: 0.186%
Vz [7]: 0.749 L/kg
AUCinf ([1]; 3 mg/kg IV): <3500 ng·h/mL
CL ([1]; 3 mg/kg IV): ~5 mL/min/kg
Extrapolated ([1]; 3 mg/kg IV): ~0.5%
MRT last ([1]; 3 mg/kg IV): ~0.5 h
T1/2 ([1]; 3 mg/kg IV): ~8 h
Vss ([1]; 3 mg/kg IV): ~0.2 L/kg
Vz ([1]; 3 mg/kg IV): ~3 L/kg
AUCinf_D ([1]; 15 mg/kg IV): 3589 kg·ng·h/mL/ng
Extrapolated ([1]; 15 mg/kg IV): 0.49%
MIC50 ([2]; S. aureus MRSA, n=104): 4 µg/mL (≈ 1.18 µM)
MIC90 ([2]; S. aureus MRSA, n=104): 8 µg/mL (≈ 2.35 µM)
MIC range ([2]; S. aureus MRSA, n=104): 1 to 16 µg/mL
MIC50 [2, 8]: 4 µg/mL (≈ 1.18 µM)
MIC90 [2, 8]: 8 µg/mL (≈ 2.35 µM)
Mode (MIC) [2, 8]: 4 µg/mL

Colistin [reference compound]
time to development of resistance (fold MIC >10) [3]: ≤ 13 days
MIC [4]: 0.5 µg/mL
